The text below walks through data of PubChem BioAssay AID489035 (Sanford-Burnham Center for Chemical Genomics, 2010).

The source made the active and inactive calls. How the calls were made is not given here.

This assay has as its system Jurkat NF-kB reporter, TCR-induced, luciferase luminescence. Briefly: T-cell NF-kB luciferase reporter inhibition – Jurkat cells, luminescence, dose response (AID 489035). For orientation: A reporter such as luciferase makes a cellular process visible.

The term IC50 denotes the concentration that gives 50% inhibition.

For the compound `COc1cc(-c2noc(C)c2-c2ccc(N(C)C)nc2)cc(OC)c1OC`, the IC50 is > 80 µM (inactive). Consider `Cc1ccc(Oc2ccc(OCC(=O)Nc3ccncc3)cc2)cc1`, for which the IC50 is 19.3 µM. Take `CC(C)CC[n+]1ccccc1/C=C/c1ccc(N(C)C)cc1`: the IC50 is > 80 µM (inactive). Next, `Cc1cc(C)cc(NS(=O)(=O)c2ccc(-c3cnc(C4CC4)o3)cc2)c1`: 20.5 µM (inactive); `COc1ccc(NC(=O)/C(Cl)=C(/Cl)S(=O)Cc2ccc(Cl)cc2)cn1` (configuration not stated): 0.27 µM. Next, `COC(=O)c1[nH]c2c(c1C)C(=O)CC(c1cccc(OC)c1)C2` (configuration not stated): > 80 µM (inactive); `Cc1ccc(N(C)S(=O)(=O)c2ccc(-c3cnc(C4CC4)o3)cc2)cc1`: 44.6 µM (inactive). Next, `O=C(Nc1ccc(Cc2ccncc2)cc1)c1ccc(S(=O)(=O)N2CCCC2)cc1`: 77.4 µM (inactive); `CCN1/C(=C/C(C)=C/c2sc3ccccc3[n+]2CC)Sc2ccccc21`: 4.63 µM. On to `COc1cc2nc(NC(=O)c3ccco3)sc(=O)c2cc1OC`, for which the IC50 was 0.47 µM.

`COc1cc(C2C3=C(Nc4ncnn42)c2ccccc2CC3)cc(OC)c1OC` (configuration not stated): the IC50 was 6.79 µM. `COc1cc(C(=O)N2CCN(c3cc(Cl)ccc3Cl)CC2)cc(OC)c1OC`: the IC50 was 24.5 µM (inactive). Regarding `COc1ccc(Nc2nc(-c3sc(C)nc3C)cs2)cc1`, the IC50 is 38.8 µM (inactive). The same measure for `CCOc1cccc(-c2nnc3n2N=C(c2cc(OC)ccc2OC)CS3)c1`: > 80 µM (inactive); for `CC/C=C/CC(=O)N[C@@H](c1ccccc1)[C@@H](O)C(=O)O[C@H]1C[C@@]2(O)[C@@H](OC(=O)c3ccccc3)C3[C@](C)(C(=O)[C@H](OC(C)=O)C(=C1C)C2(C)C)[C@@H](O)C[C@H]1OC[C@@]31OC(C)=O` (some centres not stated): > 80 µM (inactive). The same measure for `CCn1c2ccccc2c2cc(NC(=O)c3cc(OC)c(OC)c(OC)c3)ccc21`: 76.2 µM (inactive); for `Cc1nn(-c2ccccc2Cl)c(Cl)c1/C=N/Nc1nc2ccccc2s1`: < 0.16 µM. As for `CC(=O)O[C@H]1C(=O)[C@]2(C)[C@H]([C@H](OC(=O)c3ccccc3)[C@]3(O)C[C@H](OC(=O)[C@H](O)[C@@H](NC(=O)c4ccccc4)c4ccccc4)C(C)=C1C3(C)C)[C@]1(OC(C)=O)CO[C@@H]1C[C@@H]2O`, the IC50 was 0.51 µM. Next, `CCSc1nc2ccccc2n1C(=O)/C=C\c1ccc(OC)c(OC)c1`: 2.27 µM; `CC(=O)NC(c1ccc2ccccc2c1)c1ccc2cccnc2c1O` (configuration not stated): 7.22 µM. Next, `COC(=O)Cc1[nH]n(-c2nc3ccccc3s2)c(=O)c1C(C)=Nc1ccc(OC)cc1`: 6.49 µM; `COc1ccc(-[n+]2c(-c3ccccc3)cc(-c3ccc(C)cc3)cc2-c2ccccc2)cc1`: 4.95 µM; `CCOc1ccc(Br)cc1C1=CC(=O)C[C@H](c2ccc(OC)cc2)C1`: > 80 µM (inactive).

On to `COc1ccc(NC(=O)/C(Cl)=C(/Cl)S(=O)Cc2ccccc2)cn1` (configuration not stated), for which the IC50 is 0.26 µM. Next, `COc1cc([C@@H]2c3cc4c(cc3[C@@H](OC)[C@H]3COC(=O)[C@H]23)OCO4)cc(OC)c1O`: > 80 µM (inactive). For the compound `Clc1ccc2c(c1)C(C1=NCCN1)c1ccccc1CS2` (configuration not stated), the IC50 was 58.5 µM (inactive). On to `C=CCSc1nc2ccccc2n1C(=O)/C=C/c1cc(OC)c(OC)c(OC)c1`, for which the IC50 is 1.79 µM.

Regarding `CCOc1ccc(-c2[nH]ncc2-c2ccc(OC)c(OC)c2)c(O)c1`, the IC50 is 28.4 µM (inactive). The same measure for `COc1ccc(CC(=O)Nc2nc(-c3ccc(F)c(F)c3)cs2)cc1OC`: 22.4 µM (inactive). The same measure for `CC(=O)Nc1ccc(S(=O)(=O)N2c3ccc(F)cc3CCC2C)cc1` (configuration not stated): 7.46 µM. The same measure for `CCc1ccc(N2C(=O)C(Cl)=C(Nc3ccc(C(=O)N4CCCC4)cc3)C2=O)cc1`: 6.33 µM; for `C[C@]12CCC3C(CCC4=CC(O)CC[C@@]43/C=N/O)C1(O)CCC2C1=CC(=O)OC1` (some centres not stated): 47.8 µM (inactive); for `CN(C)c1ccc2c(c1)OC(N)=C(C#N)C2c1cccc(F)c1` (configuration not stated): 50.2 µM (inactive). For `CCN(CC)c1ccc(NC(=O)c2cc(OC)cc(OC)c2)c(C)c1`, the IC50 is > 80 µM (inactive). The same measure for `CC(=O)Nc1ccc(S(=O)(=O)N2CCCc3ccccc32)cc1`: > 80 µM (inactive). `CCOCCOC(=O)c1[nH]c2c(c1C)C(=O)CC(c1ccccc1)C2` (configuration not stated): the IC50 is > 80 µM (inactive). Next, `C(=N\Nc1nc2ccccc2s1)/c1ccccn1`: 0.84 µM; `O=S1(=O)C=C(Sc2nc3cc(Cl)ccc3o2)c2ccccc21`: < 0.16 µM. On to `COc1cccc(C2CC(=O)Nc3cc4c(cc32)CCC4)c1` (configuration not stated), for which the IC50 is > 80 µM (inactive). Next, `Cc1ncoc1C(=O)NC1CCCc2c1cnn2-c1ccc(C(C)(C)C)cc1` (configuration not stated): > 80 µM (inactive); `CCCC(=O)Nc1nc2ccc(NC(=O)c3c(F)c(F)c(OC)c(F)c3F)cc2s1`: 11.5 µM; `CCOc1ccccc1C(=O)Nc1ccc2nc(N3CCN(c4ncccn4)CC3)cc(C)c2c1`: 4.28 µM. Next, `CCCOc1ccccc1C1CC(=O)Nc2cc3c(cc21)OCO3` (configuration not stated): > 80 µM (inactive). Next, `CCCc1cc(C(=O)Nc2cc(C)ccc2O)no1`: > 80 µM (inactive).

`CCC1CCCCN1C(=O)c1cc(COc2ccc3ncccc3c2)on1` (configuration not stated): the IC50 is > 80 µM (inactive). Next, `C[C@@H]1C=CC(=O)O[C@@H]1c1ccc(Cl)cc1`: 0.38 µM. Next, `COc1cc(/C=C/C(=O)c2ccc([N+](=O)[O-])o2)ccc1O`: 1.86 µM. `Cc1ccc(C)c(NS(=O)(=O)c2ccc(-c3cnc(C4CC4)o3)cc2)c1`: the half-inhibitory concentration (IC50) was 13.8 µM. Next, `O=C(c1cn(Cc2ccccc2)nc1-c1ccccc1)N1CCN(c2ccccn2)CC1`: > 80 µM (inactive). Next, `COc1ccccc1N1CCN(C(=O)C2c3ccccc3Oc3ccccc32)CC1`: 57.2 µM (inactive); `CCOC(=O)c1[nH]c2c(c1C)C(=O)CC(c1ccc(F)cc1)C2` (configuration not stated): > 80 µM (inactive). The same measure for `C=CCOC(=O)c1[nH]c2c(c1C)C(=O)CC(c1ccco1)C2` (configuration not stated): > 80 µM (inactive).

`COc1ccc(Cn2c(SCc3ccc(C)cc3)nc3cc(OC)c(OC)cc3c2=N)cc1Cl`: the IC50 is 3.51 µM. As to `Cc1ccc2nc(-c3ccc4c(c3)OCCO4)cn2c1`, the half-inhibitory concentration (IC50) is 1.01 µM. The same measure for `Cc1cc(NC(=O)COC(=O)c2ccc(S(=O)(=O)N3CCCc4ccccc43)cc2)no1`: > 80 µM (inactive). Next, `CC(=O)NC(c1ccc(C(C)C)cc1)c1ccc2cccnc2c1O` (configuration not stated): 3.06 µM; `CCCC(=O)NC(c1ccc(OC)cc1)c1ccc2cccnc2c1O` (configuration not stated): 2.83 µM; `CCC/C(O)=C1\C(=O)CC(C)(C)CC1=Nc1ccc(OC)cc1OC`: > 80 µM (inactive). The same measure for `COc1ccc(C(C(=O)NC2CCCCC2)N(C(=O)CCl)c2ccc(C)cc2)cc1` (configuration not stated): 0.33 µM; for `COc1ccc(-n2nnnc2-c2ccccc2)cc1`: > 80 µM (inactive). In the case of `COc1cc(C2C(C#N)=C(N)Oc3cc(N(C)C)ccc32)cc2c1OCO2` (configuration not stated), the IC50 was > 80 µM (inactive). Next, `COc1cccc(-c2cc(C(=O)Nc3cc(C)n(Cc4ccc(Cl)cc4)n3)no2)c1`: > 80 µM (inactive); `CCOC(=O)c1[nH]c(C=O)c(C(=O)OCC)c1C`: > 80 µM (inactive); `COc1ccc(S(=O)(=O)N2N=C(C)Oc3ccccc3C2=O)cc1`: 33 µM (inactive). Take `Cc1ccc2[nH]c(-c3cccc(F)c3)cc(=O)c2c1`: the IC50 is > 80 µM (inactive).

For `CCn1cc(C(=O)NC2CCCc3c2cnn3-c2cccc(C)c2C)cn1` (configuration not stated), the IC50 was > 80 µM (inactive). The same measure for `COc1ccc(-c2c(C#N)c(N)nc3c2CCc2ccccc2-3)cc1OC`: 53.6 µM (inactive); for `CCCN(CCC)C1=CC(=[N+]2CCCC2)CC(C)(C)C1`: > 80 µM (inactive); for `O=C(NNc1ccnc2cc(Cl)ccc12)C1CCCCC1`: > 80 µM (inactive). The same measure for `COc1ccc(CCN2C(=O)C3C4C=CC(C3C2=O)C2C(=O)N(CCc3ccc(OC)c(OC)c3)C(=O)C42)cc1OC` (configuration not stated): > 80 µM (inactive); for `Cc1cc(C)c2nc(C)cc(N/N=C/c3ccc(O)cc3)c2c1`: 2.9 µM; for `O=C(Cc1ccc(-c2ccccc2)cc1)NCc1ccccc1`: < 0.16 µM.

For the compound `CCOc1ccc2c(c1)OC(c1ccc(C)cc1)(C(F)(F)F)NC2=O` (configuration not stated), the IC50 is > 80 µM (inactive).

On to `Cc1noc(C)c1CSc1nc2ccccc2c(=O)n1-c1ccccc1`, for which the IC50 was 30.8 µM (inactive).

In the case of `CCOc1ccc(N(C)S(=O)(=O)c2ccc(-c3cc(C)no3)s2)cc1`, the IC50 was > 80 µM (inactive). Next, `O=S(=O)(C/C(=C/CO)S(=O)(=O)c1ccccc1)c1ccccc1`: 0.77 µM; `COc1ccc(C(=O)N(C)Cc2cnn(Cc3ccccc3)c2)cc1S(=O)(=O)N1CCOCC1`: > 80 µM (inactive); `CCOc1ccc(S(=O)(=O)N2c3ccccc3CC2C)cc1` (configuration not stated): 8.42 µM. The same measure for `Cc1ccc(NC(=O)CSc2nc(-c3ccco3)cc(C(F)(F)F)n2)cc1C`: > 80 µM (inactive); for `CC(C)(C)c1cc(C=C(C#N)C#N)cc(C(C)(C)C)c1O`: > 80 µM (inactive); for `CC(=O)Nc1ccc(S(=O)(=O)N2c3ccccc3C(C)=CC2(C)C)cc1`: 24.4 µM (inactive). As for `O=C(Nc1ccc(C(F)(F)F)cc1)c1cccn(Cc2ccc3c(c2)OC(F)(F)O3)c1=O`, the IC50 was 17.2 µM. The same measure for `CCOc1cccc(/C=N/Nc2ccc(S(=O)(=O)N(CC)CC)cn2)c1O`: 21.8 µM (inactive); for `COc1ccc(S(=O)(=O)/N=C2\C=C(Nc3ccc(O)cc3)C(=O)c3ccccc32)cc1`: 0.53 µM; for `Cc1ccc(C(=O)c2cc([N+](=O)[O-])ccc2N2CCOCC2)cc1C`: 19.6 µM.

As to `COc1ccc([C@H]2CC(=O)C=C(c3c(OC)cccc3OC)C2)cc1`, the IC50 is > 80 µM (inactive). The same measure for `Cc1cccc(NS(=O)(=O)c2ccc(-c3cnc(C4CC4)o3)cc2)c1C`: 27.6 µM (inactive).
